Measurements from patent publication US9745324B2, “Iminothiadiazepane dioxide compounds as BACE inhibitors, compositions, and their use” (Merck Sharp & Dohme Corp., priority 2013, dated 2017).
Read-outs that look alike come from different tables or passages of the source.

Columns and labels:
[1] = molecular target: purified human autoBACE-2 (Homo sapiens, UniProt Q9Y5Z0); experiment: BACE-2 Assay (BACE-HTRF assay); format: biochemical; conditions: Ki calculated from IC50 using the Cheng-Prusoff equation, pH 5.0, read-out: BACE2 Ki
Experimental: DMSO is present at 5% final concentration in the assay. Following laser excitation of sample wells at 320 nm, the fluorescence signal at 620 nm is collected for 400 ms following a 50 μs delay on a RUBYstar HTRF plate reader (BMG Labtechnologies). Raw RFU data is normalized to maximum (1.0 nM BACE/DMSO) and minimum (no enzyme/DMSO) RFU values. […] The Ki values are calculated from the IC50 using the Cheng-Prusoff equation.

[2] = molecular target: soluble human BACE1 catalytic domain (Homo sapiens (Human), UniProt P56817); experiment: BACE1 HTRF FRET Assay; format: biochemical; conditions: Ki calculated from IC50 using the Cheng-Prusoff equation; QSY7-APPswe-Eu substrate, pH 5.0
Excerpt: Reagents: Na^+-Acetate pH 5.0; 1% Brij-35; Glycerol; Dimethyl Sulfoxide (DMSO); Recombinant human soluble BACE1 catalytic domain (>95% pure); APP Swedish mutant peptide substrate (QSY7-APP^swe-Eu): QSY7-[…]-Europium-amide (SEQ ID 1).
A homogeneous time-resolved FRET assay can be used to determine IC50 values for inhibitors of the soluble human BACE1 catalytic domain. This assay monitors the increase of 620 nm fluorescence that resulted from BACE1 cleavage of an APPswedish APP^swe mutant peptide FRET substrate (QSY7-[…]-Europium-amide (SEQ ID 1)). This substrate contains an N-terminal QSY7 moiety that serves as a quencher of the C-terminal Europium fluorophore (620 nm Em). […] Inhibition of BACE1 cleavage of the QSY7-APP^swe-Eu substrate by inhibitors is manifested as a suppression of 620 nm fluorescence.
Varying concentrations of inhibitors at 3× the final desired concentration in a volume of 10 ul are preincubated with purified human BACE1 catalytic domain (3 nM in 10 μl) for 30 minutes at 30° C. in reaction buffer containing 20 mM Na-Acetate pH 5.0, 10% glycerol, 0.1% Brij-35 and 7.5% DSMO. Reactions are initiated by addition of 10 μl of 600 nM QSY7-APP^swe-Eu substrate (200 nM final) to give a final reaction volume of 30 μl in a 384 well Nunc HTRF plate. The reactions are incubated at 30° C. for 1.5 hours. The 620 nm fluorescence is then read on a Rubystar HTRF plate reader (BMG Labtechnologies) using a 50 millisecond delay followed by a 400 millisecond acquisition time window. Inhibitor IC50 values are derived from non-linear regression analysis of concentration response curves.

[3] = QSY7-EISEVNLDAEFC-Eu-amide substrate

Chain of purified human autoBACE-2 (Q9Y5Z0 63-518 limits assumed): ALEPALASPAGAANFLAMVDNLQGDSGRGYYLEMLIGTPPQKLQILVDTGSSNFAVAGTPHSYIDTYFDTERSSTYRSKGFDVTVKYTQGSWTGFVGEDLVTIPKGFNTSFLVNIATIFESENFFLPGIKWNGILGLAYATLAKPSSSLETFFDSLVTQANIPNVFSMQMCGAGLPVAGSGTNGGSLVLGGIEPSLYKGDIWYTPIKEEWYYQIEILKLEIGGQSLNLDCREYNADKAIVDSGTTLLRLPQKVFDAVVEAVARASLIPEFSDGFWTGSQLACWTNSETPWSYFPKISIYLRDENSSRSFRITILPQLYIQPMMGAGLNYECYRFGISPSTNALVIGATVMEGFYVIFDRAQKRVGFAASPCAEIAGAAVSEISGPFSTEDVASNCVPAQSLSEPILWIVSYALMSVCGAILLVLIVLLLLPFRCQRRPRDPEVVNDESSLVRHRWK
Chain of soluble human BACE1 catalytic domain (P56817 75-416): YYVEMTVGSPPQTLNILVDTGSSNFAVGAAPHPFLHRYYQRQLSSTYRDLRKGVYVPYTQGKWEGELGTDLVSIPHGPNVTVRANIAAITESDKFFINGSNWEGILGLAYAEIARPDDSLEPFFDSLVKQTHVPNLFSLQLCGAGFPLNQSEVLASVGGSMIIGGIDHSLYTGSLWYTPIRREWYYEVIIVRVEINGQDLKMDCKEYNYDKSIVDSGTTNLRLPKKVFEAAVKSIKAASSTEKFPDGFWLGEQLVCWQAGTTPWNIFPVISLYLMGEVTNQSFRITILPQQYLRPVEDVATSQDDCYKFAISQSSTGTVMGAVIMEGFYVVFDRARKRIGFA

| Ki [1, 3] [nM] | Structure (SMILES) | Ki [2] [nM] | Ki ([1]; QSY7-[…]-Eu-amide substrate) [nM] |
| --- | --- | --- | --- |
| 195 | C#CCOc1ccc(C(=O)Nc2ccc(F)c([C@]3(C)CN(C)S(=O)(=O)C(C)(C)C(=N)N3)c2)nc1 [Example 36, N-{4-fluoro-3-[(4R)-6-imino-2,4,7,7-tetramethyl-1,1-dioxido-1,2,5-thiadiazepan-4-yl]phenyl}-5-(prop-2-yn-1-yloxy)pyridine-2-carboxamide] | 15 | – |
| 361 | CN1C[C@@](C)(c2cc(NC(=O)c3cnc(C(F)(F)F)cn3)ccc2F)NC(=N)C(C)(C)S1(=O)=O [Example 37, N-{4-fluoro-3-[(4R)-6-imino-2,4,7,7-tetramethyl-1,1-dioxido-1,2,5-thiadiazepan-4-yl]phenyl}-5-(trifluoromethyl)pyrazine-2-carboxamide] | 153 | – |
| 46 | CN1C[C@@](C)(c2cc(NC(=O)c3ccc(OCF)cn3)ccc2F)NC(=N)C(C)(C)S1(=O)=O [Example 38, N-{4-fluoro-3-[(4R)-6-imino-2,4,7,7-tetramethyl-1,1-dioxido-1,2,5-thiadiazepan-4-yl]phenyl}-5-(fluoromethoxy)pyridine-2-carboxamide] | 37 | – |
| 34.3 | C#CCOc1cnc(C(=O)Nc2ccc(F)c([C@]3(C)CN(C)S(=O)(=O)C(C)(C)C(=N)N3)c2)cn1 [Example 39, N-{4-fluoro-3-[(4R)-6-imino-2,4,7,7-tetramethyl-1,1-dioxido-1,2,5-thiadiazepan-4-yl]phenyl}-5-(prop-2-yn-1-yloxy)pyrazine-2-carboxamide] | 2.3 | – |
| – | CN1C[C@@](C)(c2cc(OCc3ccc(C#N)cc3)ccc2F)NC(=N)C(C)(C)S1(=O)=O [Example 40, (R)-4-((4-fluoro-3-(6-imino-2,4,7,7-tetramethyl-1,1-dioxido-1,2,5-thiadiazepan-4-yl)phenoxy)methyl)benzonitrile] | 651 | 4050 |
| – | CN1C[C@@](C)(c2cc(Nc3nccc4cc(C#N)cnc34)ccc2F)NC(=N)C(C)(C)S1(=O)=O [Example 41, (R)-8-((4-fluoro-3-(6-imino-2,4,7,7-tetramethyl-1,1-dioxido-1,2,5-thiadiazepan-4-yl)phenyl)amino)-1,7-naphthyridine-3-carbonitrile] | 20 | 16 |
| – | CN1C[C@@](C)(c2cc(Nc3nccc4cc(Br)cnc34)ccc2F)NC(=N)C(C)(C)S1(=O)=O [Example 42, (R)-4-(5-((3-bromo-1,7-naphthyridin-8-yl)amino)-2-fluorophenyl)-6-imino-2,4,7,7-tetramethyl-1,2,5-thiadiazepane 1,1-dioxide] | 18 | 9 |
| – | COc1cnc2c(Nc3ccc(F)c([C@]4(C)CN(C)S(=O)(=O)C(C)(C)C(=N)N4)c3)nccc2c1 [Example 43, (R)-4-(2-fluoro-5-((3-methoxy-1,7-naphthyridin-8-yl)amino)phenyl)-6-imino-2,4,7,7-tetramethyl-1,2,5-thiadiazepane 1,1-dioxide] | 209 | 240 |
| – | CN1C[C@@](C)(c2cc(Nc3nccn4ccnc34)ccc2F)NC(=N)C(C)(C)S1(=O)=O [Example 44, (R)-4-(2-fluoro-5-(imidazo[1,2-a]pyrazin-8-ylamino)phenyl)-6-imino-2,4,7,7-tetramethyl-1,2,5-thiadiazepane 1,1-dioxide] | 1350 | 270 |
